Assay results: ChEMBL document CHEMBL3507680, “University of Dundee, Gates Library screen for HepG2 cell viability”

Test: Human HepG2 cell viability assay in 384 well format
Assay type: toxicity, cell-based
Design: dose 125 nL, time 70.5 hour; cytotoxicity at 70.5 h: concentration not given beside the values
Settings: HepG2 cells, read-out: Inhibition

| Structure (SMILES) | cytotoxicity at 70.5 h |
| --- | --- |
| C[C@]1(O)CN(Cc2cccc(C(=O)O)c2)CC[C@@H]1Oc1cccc(F)c1 | -4.99% |
| Cc1nc(CN(C)C2CCCN(c3ccccc3)C2)no1 (centres undefined) | -3.56% |
| CCc1nsc(NC2CCCn3nc(COC)nc32)n1 (centres undefined) | -3.94% |
| CCc1nc(C2CCCN2Cc2cc(C)nc3ccccc23)no1 (centres undefined) | 2.62% |
| Cc1cc(Br)cnc1NCCN1CCC(N(C)C)CC1 | -4.2% |
| CCn1ccnc1CN1CCN(CCOc2ccccc2OC)CC1 | 7.36% |
| CCc1cc(C)nc(N2CCN(C(C)c3nc(C)no3)CC2)n1 (centres undefined) | -7.01% |
| Cc1ccc(C(=O)N2C[C@H]3CCC[C@@]3(COc3ccccn3)C2)nc1 | 11.3% |
| C=C(C)COc1cccc(CNCCc2nc(N)cc(O)n2)c1 | -9.19% |
| O=C(Cn1ccc2c(Cl)cccc21)Nc1nc[nH]n1 | -11.2% |
| Cc1n[nH]c(C)c1NC(=O)CN1CCOC(Cn2cccn2)C1 (centres undefined) | 0.504% |
| CC(=O)NC[C@H]1OC[C@@H](NC2CCC(F)(F)CC2)[C@@H]1O | -4.95% |
| COc1cccc(OC)c1-c1ccnc2cc(CC(=O)NC3CC3)nn12 | -11% |
| O=C1CC(c2ccc3c(c2)OCO3)c2snc(C(=O)O)c2N1 (centres undefined) | -10.6% |
| CCN(Cc1noc(C(C)C)n1)Cc1ccc(C#N)cc1F | 27.6% |
| O=C(c1cc(Cl)c[nH]1)N(CCCO)Cc1cccnc1 | -8.59% |
| Cc1nc(-c2ccsc2)ccc1C(=O)N(C)CC1CC1 | -7.16% |
| COC(=O)c1sc(C(NC(=O)c2ccccc2)C2CC2)nc1C (centres undefined) | -3.65% |
| O=C1NCC(CN2CCc3onc(-c4ccc(C(F)(F)F)cc4)c3C2)O1 (centres undefined) | -17.3% |
| CN(C)C(=O)N1CC2(CCNCC2)c2cc(Cl)ccc21 | 24.1% |
| CC[C@@H]1C[C@H](C(F)(F)F)n2nc(C3CCN(S(=O)(=O)CC)CC3)cc2N1 | 18.8% |
| COc1ccnc(N2CCC(OCCN3CCCCC3)C2)n1 (centres undefined) | -2.49% |
| Cc1nnc(CN2CCN(C)C3(CCNC(=O)CC3)C2)s1 (centres undefined) | 2.04% |

| Structure (SMILES) | cytotoxicity at 70.5 h |
| --- | --- |
| Cc1cc(C)n(CC2CCCN2CCS(=O)(=O)c2ccccc2)n1 (centres undefined) | -24.2% |
| O=C(c1cc(Cl)c[nH]1)N1CCCC(c2cc(C(F)(F)F)[nH]n2)C1 (centres undefined) | 3.82% |
| CCCC1CN(CCOC)C(=O)c2cccnc2O1 (centres undefined) | -8.12% |
| OCc1ccc(CN(CCCn2ccnc2)Cc2ccncc2)o1 | -4.15% |
| Cc1cc(C)n(C2CCN(S(=O)(=O)N3CCOCC3)CC2)n1 | -6.85% |
| c1ccc(-c2nnc3n2CCN(c2nc(C4CC4)ns2)C3)cc1 | -8% |
| O=C(NCCc1nnc2n1CCC2)NCC1(c2ccccc2)CC1 | 14% |
| Cc1nc(CN2C[C@@H]3CN(C(=O)c4cccn4C)C[C@@H]3C2)cs1 | -6.14% |
| Cc1ccc(NC2CCN(C(=O)Cc3cccs3)CC2)nn1 | 2.71% |
| Cc1ccccc1OCCCC(=O)N1CCCC(n2cncn2)C1 (centres undefined) | 13% |
| Cc1noc(C)c1CCC(=O)N1CCCN(Cc2cscn2)CC1 | -2.08% |
| Cc1cnn(CC2CCCCN2CCC(=O)Nc2cc(C)on2)c1 (centres undefined) | 4.06% |
| CCOc1cccc2c1OCC(C(=O)NS(=O)(=O)c1cncc(Br)c1)=C2 | 2.74% |
| Cc1cc(C)cc(NC(=O)Nc2c(O)oc3ccccc3c2=O)c1 | -6.68% |
| O=C(NS(=O)(=O)c1cnn(-c2ccccc2F)c1)c1ccco1 | 1.58% |
| Cn1ccnc1CN1C[C@@H](CN2CCCC2)[C@@H](CO)C1 | -5.13% |
| CN1C[C@H]2C[C@H](C(=O)Nc3cccnc3)[C@@H](C1)O2 | -11.1% |
| COc1nsc2nc(C3CCCN3c3ncccn3)ccc12 (centres undefined) | -7.28% |
| C1CN(CC2CCOCC2)Cc2c(COCC3CC3)nnn2C1 | -7.76% |
| CCn1ccnc1CN1CCC(CNC(=O)c2ccc(C)nc2)C1 (centres undefined) | -9.04% |
| CCCc1n[nH]c(C2CN(C(=O)Cc3ccc(C)nc3)CCO2)n1 (centres undefined) | -1.25% |
| O=C(NCc1ccc2c(c1)OCO2)[C@@H]1C=CCN1c1ncccn1 | -1.63% |
| CCc1nc(C2CCCN2C(=O)c2ccc3c(c2)nc(C)n3C)no1 (centres undefined) | -8.32% |

| Structure (SMILES) | cytotoxicity at 70.5 h |
| --- | --- |
| Cn1cc(C(=O)NC2CCN(C(=O)NCCSC(F)(F)F)CC2)cn1 | -1.82% |
| CS(=O)(=O)NCCNC(=O)C1(c2ccc(F)cc2)CC1 | -0.0991% |
| CNS(=O)(=O)c1cccc(CNC(=O)c2cnn(C)c2C)c1 | -11.8% |
| CCC1(CO)CCCN(c2ncccc2C#N)C1 (centres undefined) | 15.7% |
| CCn1cc(S(=O)(=O)N2CCCSc3ccccc32)cn1 | -7.44% |
| CN(CCN1CCCCC1=O)Cc1cc2cc3c(cc2[nH]c1=O)OCO3 | -8.86% |
| CN(C)CC(=O)NC1CC(C)(C)Cc2nc(C(C)(C)C)ncc21 (centres undefined) | 46.7% |
| CN(C)CCOCc1nnc2n1CCN(Cc1cccs1)CC2 | 1.78% |
| CCC(C)C(=O)NCCc1nc(C(F)(F)F)cs1 (centres undefined) | -6.38% |
| COc1cc(C)c(S(=O)(=O)CC(=O)N(C)C2CC2)cc1OC | 15.2% |
| COCCN1CCc2ncnc(NC(C)C)c2CC1 | -5.11% |
| CCC(O)CN1CCN(C(=O)CN(C)c2ccc(Cl)cn2)CC1 (centres undefined) | -5.06% |
| Cc1ccc(C2(C(=O)N3CCC(n4cc(C(C)O)nn4)CC3)CC2)cc1 (centres undefined) | -7.08% |
| c1ccc(OCc2noc(CN3CCN(C4CCCC4)CC3)n2)cc1 | 9.68% |
| COc1ccc(C2(NCc3c(C)nc4c(C)cccn34)CCCC2)cc1 | -5.54% |
| CC(O)CN(C)c1cc(C(F)(F)F)nc(-c2cccnc2)n1 (centres undefined) | -3.49% |
| O=C(CS(=O)(=O)Cc1nnnn1C1CC1)NCC1CC1 | -4.04% |
| CCCc1cc(=O)[nH]c2nnc(SCC(=O)OC)n12 | -8.96% |
| O=C(NCCN1CCOC1=O)c1ccc2sccc2c1 | -4.67% |
| CCS(=O)(=O)N1CCc2c(nc(C3CCCN3)nc2NC)C1 (centres undefined) | 18.6% |
| COCCN1CCC2(CC1)CN(C(=O)N(C)C)c1ccc(C)cc12 | 3.45% |
| Cc1cccc(NC(=O)Nc2c[nH]c(=O)[nH]c2=O)c1C | -1.56% |
| Cc1nc(-c2ccc(F)c(F)c2)cc(C2CCNCC2)n1 | -2.44% |

| Structure (SMILES) | cytotoxicity at 70.5 h |
| --- | --- |
| O=C1CCc2cc(S(=O)(=O)NC(=O)c3ccc4c(c3)COC4)ccc2N1 | -12.1% |
| Cc1ccc(-n2cc(C(=O)NCc3nnc4n3CCCCC4)nn2)cc1 | -3.85% |
| CC(C)(C)c1ncc(C(=O)NCCNC(=O)Cc2ccccc2)s1 | -5.68% |
| CC1(c2ccccc2)CCCN(C(=O)c2ccn3nnnc3c2)C1 (centres undefined) | -0.523% |
| O=C(c1cscn1)N1CC[C@H]2C[C@@H](c3ccncn3)O[C@@H]2C1 | 7.77% |
| CCc1n[nH]c(C2CN(C(=O)c3cc4c(s3)CCC4)CCO2)n1 (centres undefined) | -4.28% |
| C[C@H]1C(=O)NC[C@H]2CN(Cc3ccccc3)C[C@H]21 | -2.5% |
| COc1cc(CNC(=O)C(C)SC)cc(Br)c1OC (centres undefined) | -8.14% |
| COc1ccc(CC(=O)N2CCC(c3nncn3C)CC2)cc1F | -10.5% |
| COC1CCN(c2ccc(F)cc2CN(C)C(=O)c2cc[nH]n2)CC1 | -13.3% |
| CC(C)(N)c1nc(C(F)F)cc(=O)[nH]1 | -6.3% |
| COc1ccc(C(=O)NC(CC(=O)O)c2cccs2)c(OC)c1 (centres undefined) | -11.6% |
| O=C(NCCCn1ccnc1)N1CCN(c2cccs2)CC1 | -8.6% |
| COc1cccc(C(C(=O)O)N2CCSCC2)c1F (centres undefined) | 13% |
| COC(=O)c1cccc(C(=O)NCc2ccco2)n1 | -15.9% |
| COCCOc1ccc(C(=O)N2CCCC(n3cncn3)C2)cn1 (centres undefined) | 10.1% |
| CC(=O)c1ccc(CN2CC(Oc3ccccc3C)C2)cc1 | -1.63% |
| CSCC(CCO)NC(=O)Nc1cc(C)ccc1C (centres undefined) | 0.113% |
| CN(C)[C@@H]1CN(C(=O)Cc2cccs2)[C@@H]2CCCO[C@H]12 | -5.81% |
| CSc1ccc(C(=O)N2CC(=O)N(Cc3ccccc3)CC(O)C2)cc1 (centres undefined) | 0.216% |
| CC(C)CN1CC(C(=O)NCCc2c[nH]cn2)CC1=O (centres undefined) | -0.927% |
| CCn1nc(C)c2nc(C(C)C)nc(NCC(=O)N3CCOCC3)c21 | 5.24% |
| Cc1cccc(CN2CCN(C(=O)[C@@H]3CSCN3C)CC2)c1 | -13.3% |

| Structure (SMILES) | cytotoxicity at 70.5 h |
| --- | --- |
| Cc1ccccc1C(C(=O)NCc1nc(-c2ncccn2)no1)N(C)C (centres undefined) | -6.36% |
| CC(SCC(=O)N(C)CC(=O)NC1CC1)c1ccccc1F (centres undefined) | -5.51% |
| Clc1cc(CN2CCCC(Cn3cncn3)C2)c2ncccc2c1 (centres undefined) | -12.2% |
| O=C(Nc1cncc(Br)c1O)c1ccon1 | -2.33% |
| CCNc1ncc(C(=O)NCc2csc(C)n2)cn1 | 1.23% |
| O=C([C@@H]1CCO[C@@H]2CCN(Cc3cccs3)C[C@H]21)N1CCCCO1 | -18.4% |
| O=C(CO)N1CCC(c2ccnc(Nc3cc(C(F)(F)F)ccn3)n2)C1 (centres undefined) | -3.68% |
| Cc1ncsc1CN1C[C@@H](OCC(=O)N(C)C)[C@H]2OCCC[C@H]21 | -11.1% |
| CCN(CC)Cc1ccc(C(=O)N2CCCCC2Cn2cccn2)o1 (centres undefined) | -13.1% |
| COCc1nc2ncc3c(=O)n(-c4ccccc4OC)ccc3n2n1 | -5.8% |
| COCc1ccccc1NC(=O)CCNC(=O)c1ccoc1 | -13.1% |
| Cc1noc(COCC(=O)Nc2ccc(Br)c(C)n2)n1 | 24.3% |
| CNc1cc(CNC(=O)c2ccnc(OC)c2)nc(-c2ccncc2)n1 | 11.8% |
| CCn1cc(CN2CCCN(C(=O)c3ccoc3C)CC2)cn1 | -7.59% |
| CC(=O)NCCOc1c(Cl)cccc1Cl | 28.8% |
| COCC1CC2(CCN(C(=O)c3ccc(F)c(Cl)c3)CC2)CO1 (centres undefined) | 13% |
| O=C(c1ccc(Br)s1)N1CCN(Cc2ccc(OC(F)(F)F)cc2)CC1 | 1.44% |
| FC(F)(F)CCc1ccnc(NC2CCOC2)n1 (centres undefined) | 27.9% |
| COc1cccc2c1ccn2CCNC(=O)C(C)C | -6.5% |
| Fc1cnc(N2CCCC3(CCN(Cc4ccoc4)C3)C2)nc1 (centres undefined) | 11.2% |
| O=C(c1cnc(O)c(Cl)c1)N1CCCC(c2nccs2)C1 (centres undefined) | 6.3% |
| O=C(Nc1ccccn1)c1nc(N2CCCC2)ncc1Cl | -6.57% |
